Molecular target: PLK1 (polo-like kinase 1) (Homo sapiens, UniProt P53350)
Experiment: radiometric […]-ATP kinase assay, casein substrate, […] ATP (Reaction Biology)
Type: biochemical

Chain of PLK1 (polo-like kinase 1) (P53350 2-603): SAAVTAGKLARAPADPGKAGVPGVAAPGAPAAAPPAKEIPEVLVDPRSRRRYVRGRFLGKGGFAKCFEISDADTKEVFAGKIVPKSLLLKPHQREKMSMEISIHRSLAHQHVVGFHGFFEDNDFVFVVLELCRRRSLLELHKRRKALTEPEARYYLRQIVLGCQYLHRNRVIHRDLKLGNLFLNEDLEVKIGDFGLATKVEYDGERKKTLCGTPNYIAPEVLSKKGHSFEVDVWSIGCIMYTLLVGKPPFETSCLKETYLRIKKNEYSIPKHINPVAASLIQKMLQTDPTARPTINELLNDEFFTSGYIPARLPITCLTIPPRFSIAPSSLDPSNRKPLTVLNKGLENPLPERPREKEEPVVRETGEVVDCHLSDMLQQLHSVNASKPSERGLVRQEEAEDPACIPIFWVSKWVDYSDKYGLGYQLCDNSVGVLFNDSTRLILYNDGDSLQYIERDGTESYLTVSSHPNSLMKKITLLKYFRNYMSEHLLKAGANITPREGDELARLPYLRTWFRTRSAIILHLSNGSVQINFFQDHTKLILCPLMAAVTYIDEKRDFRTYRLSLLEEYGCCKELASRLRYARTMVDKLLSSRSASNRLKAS

Question: With `CN(C)C(=O)N1CCc2ccc(Nc3nccc(-n4cc(/C=C/c5ccccc5)c(C(N)=O)n4)n3)cc21` [D40, (E)-6-((4-(3-carbamoyl-4-styryl-1H-pyrazol-1-yl)pyrimidin-2-yl)amino)-N,N-dimethylindoline-1-carboxamide] as the compound, how does the IC50 read?
Answer: 359 nM

Question: With `CCOC(=O)c1nn(-c2ccnc(Nc3ccc4c(c3)N(C(=O)N(C)C)CC4)n2)cc1/C=C/c1ccccc1` [D39, Ethyl (E)-1-(2-((1-(dimethylcarbamoyl)indolin-6-yl)amino)pyrimidin-4-yl)-4-styryl-1H-pyrazole-3-carboxylate] as the compound, how does the IC50 read?
Answer: 1430 nM

— PMC9610081, “Design and Synthesis of Aminopyrimidinyl Pyrazole Analogs as PLK1 Inhibitors Using Hybrid 3D-QSAR and Molecular Docking” (Pharmaceuticals, 2022)
